The data set in a line: gradient 5% acetonitrile 3 min, to 50% in 2 min, to 85% in 15 min, held 3 min, 100 µL/min. As to conditions: column: Zorbax Extend-C18 2.1 x 50 mm; eluents: water / acetonitrile, 0.1% formic acid. The gist of the method:
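In both positive and negative ionization mode, a quadrupole time-of-flight mass spectrometer coupled to HPLC analyzed pure standards run in mixtures of ~100 molecules. The Zorbax Extend-C18 column (2.1 × 50 mm, 1.8 μm) was operated at 100 μL/min with water and acetonitrile, each containing 0.1% formic acid. The dead volume was 40 μL and the dwell volume 900 μL. Retention time came from adduct peaks that were computationally picked and individually inspected by hand.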
For the compound `O=C(NCC(F)(F)F)C1CCN(C(=O)NCc2ccccc2)CC1`, the RP-LC retention time is 656 s.

On to `CC(C)OC(=O)c1c(-c2ccccc2)c(-c2ccccc2)n[nH]c1=O`, for which the RP-LC retention time turned out to be 910 s. `CN(CC(=O)N1CCN(c2ccccc2)CC1)S(=O)(=O)c1c[nH]c(C(=O)N2CCCC2)c1` had an RP-LC retention time of 744 s. Then `Cc1nc2c(sc3nc(-c4ccccc4)ccc32)c(=O)n1CC(=O)Nc1ccc(F)c(Cl)c1`, with 1140 s; and `CCCc1ccc(S(=O)(=O)N2CCCC2c2nc(-c3cccc(F)c3)no2)cc1` (centres undefined), with 1270 s; and `O=C(c1cn2ccnc(-c3ccccc3)c2n1)N1CCCC1`, with 831 s. For the compound `CCN(Cc1ccccc1)C(=O)c1ncn2c1C(=O)N(CC)C(C)(C(=O)NC1CCCC1)C2` (centres undefined), the RP-LC retention time worked out at 734 s. For `COc1ccc(C(=O)N2CCC(n3c(-c4ccoc4)nc4cccnc43)C2)cc1F` (centres undefined), the RP-LC retention time stood at 714 s. `Cc1ccc(NC(=O)Cn2ncc3c(c2=O)N(C)C(=O)CS3)c(Br)c1` gave an RP-LC retention time of 714 s. Compound `Cc1ccc(S(=O)(=O)N2C[C@H]3CN(C(=O)NCCc4ccccc4)C[C@@H](C2)O3)cc1` returned an RP-LC retention time of 834 s. `CNC(=O)c1csc(NC(=O)Cc2ccc(OC)cc2)n1` displayed an RP-LC retention time of 634 s. The compound `CCCNC(=O)C1CCCN(c2nc3ncn(CC(=O)Nc4c(C)cc(C)cc4C)c(=O)c3s2)C1` (centres undefined) gave an RP-LC retention time of 728 s.

Regarding `Cc1ccccc1NS(=O)(=O)c1cc2n(c1)CCCNC2=O`, the RP-LC retention time came to 646 s. In the case of `CSc1ccc(-c2noc(CN3C(=O)COc4cc(Cl)ccc43)n2)cc1`, the RP-LC retention time worked out at 1170 s. Turning to `O=C(C1COc2ccccc2O1)N1CCN(c2cc(-c3ccc(Cl)cc3)[nH]n2)CC1` (centres undefined), the RP-LC retention time is 926 s. `O=C(NC1CC1)C1CCN(C(=O)c2cc(-c3ccncc3)n[nH]2)CC1` showed an RP-LC retention time of 546 s. In turn, `Cc1ccc(N2CC(c3noc(-c4ccccn4)n3)CC2=O)cc1` (centres undefined) had an RP-LC retention time of 797 s.

For `O=C(Nc1ccc2c(c1)CN(S(=O)(=O)c1ccc3c(c1)CCC3)CCO2)C1CC1`, the RP-LC retention time was found to be 932 s. The figure for `Cc1ccc(C(=O)N2CCCC2c2c(C)noc2C)cc1` (centres undefined) is 760 s. Then `Cn1ncc2c3ccccc3n(CC(=O)N3CCN(c4ncccn4)CC3)c2c1=O`, with 700 s; and `CCn1cc(C(=O)NCc2ccc(F)cc2)c(S(=O)(=O)N2CCSCC2)n1`, with 915 s. The figure for `CCn1cc(C)c(C(=O)O)c1CC(=O)N1CCc2ccccc2C1` is 780 s; for `O=C1CCCc2cc(S(=O)(=O)N3CCCC3C(=O)NC3CCCCCC3)ccc2N1` (centres undefined) it is 782 s; for `CSc1cccc(NC(=O)N2CCC(N3CCN(Cc4ccccc4)C(=O)C3=O)CC2)c1` it is 770 s. Consider `Cc1c(-c2ccnc(N3CCOCC3)n2)cnc2nc(-c3ccccc3)nn12`, for which the RP-LC retention time is 885 s.

`O=C(Cn1nc2c(cc1=O)CCCC2)NCCc1nc(-c2ccccc2)cs1` had an RP-LC retention time of 784 s. The compound `COC(=O)c1ccc(NC(=O)C2CCCN(c3ncnc4c3nc3n4CCCCC3)C2)cc1` (centres undefined) came in with an RP-LC retention time of 808 s. On to `CCN1C(=O)c2cccnc2Sc2cc(CNC(=O)c3ccc(OC)cc3)ccc21`, for which the RP-LC retention time amounted to 755 s. The figure for `Cc1ccc(CN2CC(=O)N(c3ccccc3)[C@@H]3CS(=O)(=O)C[C@@H]32)cc1` is 800 s; for `CCc1ccccc1NC(=O)CSc1cc(N2CCN(c3ccccc3OC)CC2)ncn1` it is 1040 s.

The compound `O=S(=O)(c1ccc(Br)s1)N1CCCC1c1nc(-c2ccc(F)cc2)no1` (centres undefined) returned an RP-LC retention time of 1180 s. The figure for `COCCn1cc(CCNC(=O)Nc2cc(C)ccc2C)c2cccnc21` is 752 s. The figure for `CCOc1ccc(C(=O)N2CCC3(CC2)NC(=O)c2cc(C)ccc2N3CC)cc1` is 878 s; for `COC(=O)c1cnn(-c2ccc(C)cc2)c1N` it is 704 s; for `CC(=O)Oc1ccccc1C(=O)N1CCCc2ccccc21` it is 868 s. On to `Cc1nn(CCC(=O)NC2CCCCCC2)c(=O)c2nn(-c3ccccc3)c(C)c12`, for which the RP-LC retention time came to 830 s.

`COc1cc(-c2ccnc3nc(Cc4ccc(F)cc4)nn23)cc(OC)c1OC` came in with an RP-LC retention time of 695 s. With `CCC1=C(c2ccc(C)cc2)S(=O)(=O)N=C1N1CCC(C(=O)NCc2ccco2)CC1`, the RP-LC retention time is 793 s. Compound `Cc1cc(-c2nnc(NC(=O)c3cc4cc([N+](=O)[O-])ccc4s3)o2)n(C)n1` gave an RP-LC retention time of 789 s. Regarding `CNC(=O)c1cc(-c2ccccc2)n[nH]1`, the RP-LC retention time was determined as 643 s. `CCN(CC)c1nc2cc(C(=O)OC)ccc2c(=O)n1-c1cccc(OC)c1` showed an RP-LC retention time of 1110 s.

The compound `CCOC(=O)c1ccc2nc(C(F)(F)F)nc(NCCCN3CCCC3=O)c2c1` came in with an RP-LC retention time of 876 s. Consider `CCNC(=O)C1CCN(C(=O)Nc2ccc(NC(=O)Nc3ccccc3F)cc2)CC1`, for which the RP-LC retention time was found to be 686 s. Then `CCc1nn2c(CNS(=O)(=O)c3ccccc3C)c(-c3ccccc3)nc2s1`, with 921 s; and `O=C(c1cccc(Br)c1)N1CCN(c2cc(-c3ccccc3)[nH]n2)CC1`, with 852 s; and `Clc1ccc(-c2nc(N3CCCCCC3)c3ccccc3n2)cc1`, with 847 s. Compound `CCN1CCN(CCCNC(=O)c2oc3ccc4c(c3c2C)C(O)CC(C)(C)O4)CC1` (centres undefined) yielded an RP-LC retention time of 592 s.

As to `Cn1ccc2cc(S(=O)(=O)N3CCC(C(=O)N4CCN(c5ccccn5)CC4)CC3)ccc21`, the RP-LC retention time amounted to 648 s. The compound `CCCCN1CCC(F)(c2nc(-c3ccccc3)no2)CC1` came in with an RP-LC retention time of 691 s. In the case of `CCSc1nnc(-c2nn(C)c3c2CN(S(=O)(=O)c2cc(Cl)ccc2OC)CC3)n1CC`, the RP-LC retention time was 975 s. `CCN(Cc1ccncc1)C(=O)C(CO)c1ccccc1` (centres undefined) registered an RP-LC retention time of 619 s.

`Cn1c(=O)c(=O)n(C)c2cc(NC(=O)c3cccs3)ccc21` had an RP-LC retention time of 653 s. As for `Cn1c(-c2ccccc2)nn(CCNC(=O)C2COc3ccccc3O2)c1=O` (centres undefined), the RP-LC retention time came to 702 s. Then `CCN1CCN(c2ncc3c(n2)CCN(Cc2cccc(C)c2)C3)CC1`, with 529 s; and `CCc1ccc(NC(=O)C2CCN(S(=O)(=O)c3cc(-c4noc(C5CC5)n4)cs3)CC2)cc1`, with 1100 s. Regarding `Cc1nn(Cc2nc(-c3ccc(NC(=O)C4CCCC4)cc3)oc2C)c(C)c1C`, the RP-LC retention time amounted to 860 s. In the case of `Cc1ccc(F)cc1S(=O)(=O)N1CCN(c2ccc(N3CCOCC3)nn2)CC1`, the RP-LC retention time is 592 s.

`O=C(NC1CCN(c2cc(-c3cccs3)[nH]n2)C1)c1ccc(F)cc1` (centres undefined) displayed an RP-LC retention time of 726 s. As to `CCCN(C)CC1(O)CCC2(CCN(Cc3ccc(F)cc3)CC2)CC1`, the RP-LC retention time is 547 s.

Consider `COc1cccc2cc(C(=O)N3CC(c4nc(-c5cccs5)no4)C3)oc12`, for which the RP-LC retention time amounted to 856 s.

Consider `Cc1ccc(C(=O)N2CCC(n3c(-c4ccoc4)nc4cccnc43)C2)cc1C` (centres undefined), for which the RP-LC retention time is 806 s.

The compound `COc1ccc(CCN2CCC(CNS(=O)(=O)c3cc(-c4cc(C)no4)cs3)CC2)cc1` gave an RP-LC retention time of 718 s.

The compound `Cc1cccc(NC(=O)NCC(c2cccnc2)c2c[nH]c3ccccc23)c1C` (centres undefined) showed an RP-LC retention time of 661 s. Turning to `COc1ccc(OCc2nnc3sc(C4COc5ccccc5O4)nn23)cc1` (centres undefined), the RP-LC retention time is 913 s. The figure for `COc1ccc(N2C(=O)C3N=NN(Cc4nc(-c5ccc(C)c(C)c5)no4)C3C2=O)cc1` (centres undefined) is 1050 s. With `O=C(CC1C=Cc2ccccc2N1C(=O)c1ccccc1)c1ccccc1` (centres undefined), the RP-LC retention time stood at 1270 s.

With `Cc1nn2c(CNS(=O)(=O)c3ccc(C(C)C)cc3)c(-c3ccccc3)nc2s1`, the RP-LC retention time was 1010 s. `CCn1cc(CCNC(=O)Nc2cccc(Cl)c2)c2cccnc21`: the RP-LC retention time came out at 788 s. In turn, `Cc1ccccc1N1OC2C(=O)N(c3ccc(F)cc3)C(=O)C2C1c1ccncc1` (centres undefined) gave an RP-LC retention time of 671 s. `Cn1nc(C2CCN(S(=O)(=O)c3cccc(Cl)c3)CC2)n(C2CCCC2)c1=O` registered an RP-LC retention time of 925 s. `Cc1ccc(NC(=O)C2CC(=O)N(CCc3c[nH]c4ccc(C)cc34)C2)cc1` (centres undefined) showed an RP-LC retention time of 843 s. On to `Cc1ccc(CNC(=O)C2CCCN(c3cnn(C)c(=O)c3)C2)cc1` (centres undefined), for which the RP-LC retention time was 715 s.

`O=C(NC1CC1)c1cn(CCC2CCCCN2C(=O)c2ccoc2)nn1` (centres undefined) yielded an RP-LC retention time of 641 s. The figure for `CCc1nc(OCC(=O)NCc2ccc(C)cc2)c2ccccc2n1` is 798 s; for `Cc1noc(C2(NS(=O)(=O)c3ccc(C#N)cc3)CCCCC2)n1` it is 773 s; for `O=C(CCc1c(-c2ccccc2)nc2ccccn12)Nc1ccc(Br)cc1F` it is 722 s. In turn, `O=C(NCCc1csc(-c2ccc(F)cc2)n1)c1ccc2c(c1)OCO2` returned an RP-LC retention time of 908 s. `CNC(=O)c1nc(-c2ccc(C)cc2)n2c1CCCCC2` showed an RP-LC retention time of 702 s. Compound `COc1cc(OC)c(NC(=O)Cn2nc3n(c2=O)CCCC3)cc1Cl` yielded an RP-LC retention time of 673 s.
